Laboratory results reported in paper PMC12207908, “The broad‐spectrum antimicrobial peptide BMAP‐27B potentiates carbapenems against NDM‐producing pathogens in food animals” (mLife, 2025).
No end group written: not given here.

Legend:
bacterial suspension = test: Antimicrobial activity in varying concentrations of proteases and serum; type: in vitro ADME; conditions: trypsin or proteinase K, 1:1 (v/v) incubation 1 h, diluted to 2×MIC, then 18-24 h at 37℃ with bacteria (Figure S1)
Protocol: The above mixture was added to the bacterial suspension and incubated at 37℃ for 18-24 hours. Finally, the absorbance of […] was measured and used to calculate the survival rate of bacteria.

BALB/c mice = test: In vivo biocompatibility; conditions: 5, 10, and 20 mg/kg intraperitoneal, once daily
Protocol: Male BALB/c mice (6–8 weeks of age, 18 ± 2 g) were purchased from Tengxin Biotechnology Co., Ltd., for the animal studies. Healthy male BALB/c mice were randomly divided into four groups, with six mice per group. Mice in the three experimental groups received intraperitoneal injections of peptide solutions at doses of 5, 10, and 20 mg/kg, while the control group received injections of PBS. Injections were administered once daily for five consecutive days, and the body weight of each mouse was recorded daily. On the sixth day, the mice were euthanized under deep anesthesia and blood samples were collected for biochemical analysis, including AST, CREA, UREA, and ALT. The livers and kidneys were subsequently weighed, fixed in 4% paraformaldehyde, and subjected to histopathological examination using H&E staining.

Acinetobacter baumannii = type: cell-based
Protocol: The MIC of BMAP‐27B and other antibiotics was determined using the broth microdilution method, following the guidelines established by the Clinical and Laboratory Standards Institute (CLSI). Briefly, the bacterial cultures were grown to the logarithmic growth phase and subsequently diluted in Mueller–Hinton broth (MHB) to achieve a final concentration of 1 × 10^6 CFU/ml. BMAP‐27B and the other antibiotics were prepared in twofold serial dilutions in MHB and mixed with an equal volume of bacterial suspension in 96‐well polypropylene microtiter plates.

CREC6 and CRKP2 = type: in vitro ADME, Escherichia coli and Klebsiella pneumoniae
Protocol: (§1) The antibacterial activity of the treated peptide was determined using CREC6 and CRKP2 as models. Bacterial colony survival was quantified by measuring the absorbance at 600 nm using a microplate reader. The activity of the peptide was also determined in the presence of NaCl to assess its salt sensitivity, with a final NaCl concentration of 400 mM. […] The bactericidal efficacy of BMAP‐27B against bacteria in SIF or SGF was evaluated using the plate counting method at different time points.

[1] = type: binding; conditions: pH 7.4
Protocol: The detailed steps of molecular docking are provided in the Supporting Information. Microcalorimetric experiments were conducted to examine the interaction between BMAP‐27B and the divalent cation zinc (Zn^2+) using ITC to determine the binding affinity of BMAP‐27B for Zn^2+. Both BMAP‐27B and Zn^2+ were dissolved in PBS (pH 7.4). Before the experiment, all samples were degassed in a sonication bath for 10 min. At 25°C, Zn^2+ was sequentially injected into the calorimetric cell containing BMAP‐27B, with a total of 25 injections performed, allowing for a 180‐s equilibration interval between injections. The resulting data were analyzed using software to calculate K d.

CREC6 = type: in vitro ADME, Escherichia coli
Protocol: as §1

GRFKRLRKKLKKLFKKLSPVIPLLHLG [BMAP-27B]
protease concentration resulting in loss of activity (bacterial suspension): above 200 μg/ml
relative weights of the heart, liver, spleen, and kidneys (BALB/c mice): no significant differences
MIC (Acinetobacter baumannii): ≤ 6.250 µg/mL
efficacy after co‐incubation with fetal bovine serum (CREC6 and CRKP2): maintained considerable efficacy
Kd [1]: 31.36 µM
activity in simulated intestinal fluid (SIF) (CREC6): no activity
viable bacterial count after incubation with simulated gastric fluid (SGF) (CREC6): lower than that of the control group
